According to patent publication US10093675B2, “6,8-disubstituted-9-(heterocyclyl)purines, compositions containing these derivatives and their use in cosmetic and medicinal applications” (USTAV EXPERIMENTALNI BOTANIKY AV CR, V.V.I., priority 2014, dated 2018):

Tests used:
[1] = test system: excised wheat leaf tips (Triticum aestivum cv. Hereward); assay: Senescence inhibition on winter wheat leaf segments (retention of chlorophyll); format: in vivo; settings: 10^−4 mol/L; 96 hours in the dark; activity of kinetin set at 100%
Description: Seeds of winter wheat, Triticum aestivum cv. Hereward, were washed under running water for 24 hours and then sown on vermiculite soaked with Knop's solution. They were placed in the grown chamber at 25° C. with a 16/8 hours light period at […]. After 7 days, the first leaf was fully developed and the second leaf had started to grow. A tip section of the first leaf, approximately 35 mm long, was removed from 5 seedlings and trimmed slightly to a combined weight of 100 mg. The basal ends of the five leaf tips were placed in the wells of a microtiter polystyrene plate containing […] of a cytokinin solution each. The entire plate was inserted into a plastic box lined with paper tissues soaked in distilled water to prevent leaf sections from drying out. After 96 hours incubation in the dark at 25° C., the leaves were removed and chlorophyll extracted by heating at 80 C for 10 min in 5 ml of 80% ethanol (v/v). The sample volume was then restored to 5 ml by the addition of 80% ethanol (v/v). The absorbance of the extract was recorded at 665 nm. In addition, chlorophyll extracts from fresh leaves and leaf tips incubated in deionized water were measured. From the obtained data, the concentration with highest activity was selected for each compound tested. Relative activity of the compound at this concentration was calculated (see Table 6 below). The activity obtained for 10^−4 M kinetin (Kin) was set as 100%. The values shown are means of five replicates and the whole experiment was repeated twice.
The compounds to be tested were dissolved in dimethylsulfoxide (DMSO) and the solution brought up to 10^−3 M with distilled water. […] As summarized in Table 6 below, the presence of C-8 substitutent was beneficial and led to increase of antisenescent properties.

[2] = test system: human diploid fibroblasts (HDF cells; HDF25, HDF45, HDF80); assay: Inhibition of human cell aging: senescent cells by beta-galactosidase staining; format: cell-based; settings: for SENESCENT CELLS (%) HDF25: human diploid fibroblasts passage 25, beta-galactosidase staining; for SENESCENT CELLS (%) HDF45: human diploid fibroblasts passage 45, beta-galactosidase staining; for SENESCENT CELLS (%) HDF80: human diploid fibroblasts passage 80, beta-galactosidase staining
Description: In this example, human diploid fibroblasts (HDF cells of various passage levels: passage 25—designated HDF25; passage 45—designated HDF45; passage 80—designated HDF80) were stained for beta-galactosidase activity. The medium used for the cell cultivation was removed the cells were washed twice in […], and fixed in 2-3 ml of fixing solution comprised of a 2% formaldehyde and 0.2% glutaraldehyde in PBS. The cells were incubated at room temperature for 5 minutes, and then washed twice with PBS. The cells were subsequently incubated at 37° C. […] In this experiment, senescent cells, but no other cells were stained blue due to the action of beta-galactosidase on the substrate.

[3] = test system: Salmonella typhimurium histidien auxotrophs TA98 and TA100; assay: Ames test; format: cell-based; settings: 2.5 to 5000 μg/plate; presence and absence of Aroclor-induced rat liver S9
Description: A number of tests related to the safety of have been carried out using conventionally accepted protocols and procedures. The results of these studies are summarized herein. Tests were carried out using DMSO as solvent and dose levels of compound 21, 24, 26, 27, 39, 41, 45, 48, 50, 52, 53, 54, 55, 56, 63, 64, 66, 67, 68, 69, 70, 71, 72, 74, 76, 124, 125, 126, 127, 128, 129, 130, 145, 146, 147, 149, 150, 151, 208, 216, 218 a 243 at 2.5, 5.0, 15, 50, 500, 1500, and 5000 μg/plate based upon standard protocol and procedures (Ames et al., Mutation Research, 31, 347-364 (1975); Maron et al., Mutation Research, 113, 173-215 (1983)).

[4] = test system: cytokinin-dependent tobacco callus Nicotiana tabacum L. cv. Wisconsin 38; assay: Plant cell division: growth of cytokinin-dependent tobacco callus; format: cell-based; settings: for Activity (%); (s.d.): relative activity at concentration with highest activity, 10^−6 M kinetin set at 100%; for Concentration with highest activity (mol/l): tobacco callus fresh weight increase after four weeks, tested 10^−8 M to 10^−4 M
Description: Cytokinin-dependent tobacco callus Nicotiana tabacum L. cv. Wisconsin 38 was maintained at 25° C. in darkness on modified MS medium, containing 4 μmol/l nicotinic acid, 2.4 μmol/l pyridoxine hydrochloride, 1.2 μmol/l thiamine, 26.6 μmol/l glycine, 1.37 μmol/l glutamine, 1.8 μmol/l myo-inositol, 30 g/l of sucrose, 8 g/l of agar, 5.37 μmol/l NAA and 0.5 μmol/l BAP. Subcultivation was carried out every three weeks. Fourteen days before the bioassay, the callus tissue was transferred to the media without BAP. Biological activity was determined from the increase in fresh callus weight after four weeks of cultivation. Five replicates were prepared for each cytokinin concentration and the entire test was repeated twice. From the obtained data, the concentration with highest activity was selected for each compound tested. Relative activity at this concentration was calculated (see Table 17 below). The activity obtained for 10^−6 M kinetin (Kin) was set as 100%.
The cytokinins to be tested were dissolved in dimethylsulfoxide (DMSO) and the solution brought up to 10^−3M with distilled water.

| SMILES | Activity (%) (s.d.), retention of chlorophyll [1] | SENESCENT CELLS (%) HDF25 [2] [%] | SENESCENT CELLS (%) HDF45 [2] [%] | SENESCENT CELLS (%) HDF80 [2] [%] | mutagenic response [3] | Activity (%); (s.d.) [4] | Concentration with highest activity (mol/l) [4] |
| --- | --- | --- | --- | --- | --- | --- | --- |
| Fc1ccc(CNc2ncnc3c2nc(Cl)n3C2CCCCO2)cc1F (stereo not drawn) [Compound 11] | 127 (±5) % | – | – | – | – | – | – |
| COc1ccc(CNc2ncnc3c2nc(Cl)n3C2CCCCO2)cc1OC (stereo not drawn) [Compound 12] | 140 (±7) % | – | – | – | – | – | – |
| COc1ccc(CNc2ncnc3c2nc(Br)n3C2CCCCO2)cc1OC (stereo not drawn) [Compound 41] | 133 (±7) % | 2 | 6 | 21 | no positive mutagenic responses | – | – |
| Ic1nc2c(NCc3ccco3)ncnc2n1C1CCCCO1 (stereo not drawn) [Compound 45, 8-Iodo-6-furfurylamino-9-(tetrahydropyran-2-yl)-9H-purine] | 112 (±4) % | 3 | 5 | 20 | no positive mutagenic responses | – | – |
| C/C(=C\CNc1ncnc2c1nc(I)n2C1CCCCO1)CO (stereo not drawn) [Compound 48] | 120 (±4) % | 2 | 4 | 21 | no positive mutagenic responses | – | – |
| Fc1cccc(CNc2ncnc3c2nc(I)n3C2CCCCO2)c1 (stereo not drawn) [Compound 50] | 121 (±4) % | 3 | 4 | 19 | no positive mutagenic responses | – | – |
| COc1cccc(CNc2ncnc3c2nc(I)n3C2CCCCO2)c1 (stereo not drawn) [Compound 52] | 120 (±3) % | 2 | 6 | 21 | no positive mutagenic responses | – | – |
| Oc1cccc(CNc2ncnc3c2nc(I)n3C2CCCCO2)c1 (stereo not drawn) [Compound 53] | 125 (±6) % | 2 | 5 | 21 | no positive mutagenic responses | – | – |
| Oc1ccc(CNc2ncnc3c2nc(I)n3C2CCCCO2)cc1O (stereo not drawn) [Compound 54] | 138 (±7) % | 3 | 5 | 20 | no positive mutagenic responses | – | – |
| Fc1ccc(CNc2ncnc3c2nc(I)n3C2CCCCO2)cc1F (stereo not drawn) [Compound 55] | 133 (±5) % | 3 | 4 | 18 | no positive mutagenic responses | – | – |
| COc1ccc(CNc2ncnc3c2nc(I)n3C2CCCCO2)cc1OC (stereo not drawn) [Compound 56] | 141 (±8) % | 3 | 5 | 21 | no positive mutagenic responses | – | – |
| Clc1nc2c(NCc3ccco3)ncnc2n1C1CCCO1 (stereo not drawn) [Compound 63] | 110 (±2) % | 2 | 4 | 19 | no positive mutagenic responses | – | – |
| Oc1ccc(CNc2ncnc3c2nc(Cl)n3C2CCCO2)cc1O (stereo not drawn) [Compound 66] | 132 (±5) % | 2 | 4 | 16 | no positive mutagenic responses | – | – |
| Fc1ccc(CNc2ncnc3c2nc(Cl)n3C2CCCO2)cc1F (stereo not drawn) [Compound 67] | 128 (±6) % | 4 | 6 | 18 | no positive mutagenic responses | – | – |
| Oc1cccc(CNc2ncnc3c2nc(Cl)n3C2CCCO2)c1 (stereo not drawn) [Compound 70] | 126 (±1) % | 2 | 5 | 18 | no positive mutagenic responses | 110 (±1) % | 10^−6-10^−4 mol/l |
| Fc1cccc(CNc2ncnc3c2nc(Cl)n3C2CCCO2)c1 (stereo not drawn) [Compound 71] | 119 (±3) % | 3 | 6 | 19 | no positive mutagenic responses | 116 (±2) % | 10^−6-10^−4 mol/l |
| Brc1nc2c(NCc3ccco3)ncnc2n1C1CCCO1 (stereo not drawn) [Compound 72] | 106 (±2) % | 3 | 4 | 17 | no positive mutagenic responses | – | – |
| C/C(=C/CNc1ncnc2c1nc(Br)n2C1CCCO1)CO (stereo not drawn) [Compound 74] | 127 (±5) % | 3 | 5 | 21 | no positive mutagenic responses | 122 (±4) % | 10^−6-10^−4 mol/l |
| CC(C)=CCNc1ncnc2c1nc(Br)n2C1CCCO1 (stereo not drawn) [Compound 75] | – | – | – | – | – | 119 (±4) % | 10^−6-10^−4 mol/l |
| Oc1cccc(CNc2ncnc3c2nc(I)n3C2CCCO2)c1 (stereo not drawn) [Compound 76] | 112 (±3) % | 3 | 4 | 15 | no positive mutagenic responses | 114 (±3) % | 10^−6-10^−4 mol/l |
| OCCNc1nc2c(NCc3ccco3)ncnc2n1C1CCCCO1 (stereo not drawn) [Compound 243, 6-furfurylamino-8-(2-hydroxyethylamino)-9-(tetrahydropyran-2-yl)-9H-purine] | – | – | – | – | no positive mutagenic responses | – | – |
| c1coc(CNc2ncnc3[nH]cnc23)c1 [kinetin, reference compound] | 100% | 3 | 5 | 38 | – | – | – |
